# Source: PMC9963409, “Structural Insight into Catalysis by the Flavin-Dependent NADH Oxidase (Pden_5119) of Paracoccus denitrificans” (International Journal of Molecular Sciences, 2023)
# B1: Pden_5119 protein (flavin-dependent NADH oxidase of Paracoccus denitrificans) (enzyme)
# chain: MPGPRIVAFAGSWSRPSKTRSLVEEAARRAVARFGGSAHVFDIADLGPDFGSLRQPQDGPHTRHLDAFLAADALIVASPVYKGSYTGLFKHFIDLIEPVALVGKPVLLAATGGGDRHALVIEHQLRPVFGFFEAHTLATGLYVSASDFGPDGLASEAASTRLDRAVAQFAAHLSRHDAAPLLAVG
# notes: Pden_5119, product of the gene pden_5119 of Paracoccus denitrificans; subunit molar mass 20 596 g/mol; 15 histidines per monomer including the tag; also called wild-type; not shown: His6, C-terminal, kept
# Key:
# Pden_5119 [1] = biological target: T1, Pden_5119 (Paracoccus denitrificans, UniProt A1BCD5, H117A); test: intrinsic protein fluorescence quenching titration; assay type: binding; conditions: read-out: Kd^FMN
# T1 construct: C-terminal His6 tag kept, expressed in E. coli BL21(DE3)pLysS; subunit 20596 g/mol; dimer in solution; contains no cysteine
# From the text: (§1) intrinsic protein fluorescence quenching titration on Pden_5119
# Pden_5119 [2] = biological target: T2, Pden_5119 (Paracoccus denitrificans, UniProt A1BCD5, K82A); test: intrinsic protein fluorescence quenching titration; assay type: binding; conditions: read-out: Kd^FMN
# T2 construct: C-terminal His6 tag kept, expressed in E. coli BL21(DE3)pLysS; subunit 20596 g/mol; dimer in solution; contains no cysteine
# From the text: as §1
# Pden_5119 [3] = biological target: T3, Pden_5119 (Paracoccus denitrificans, UniProt A1BCD5); test: intrinsic protein fluorescence quenching titration; assay type: binding; conditions: read-out: Kd^FMN
# T3 construct: C-terminal His6 tag kept, expressed in E. coli BL21(DE3)pLysS; subunit 20596 g/mol; dimer in solution; contains no cysteine
# From the text: as §1
# Pden_5119 [4] = biological target: T4, Pden_5119 (Paracoccus denitrificans, UniProt A1BCD5, R116K); test: intrinsic protein fluorescence quenching titration; assay type: binding; conditions: read-out: Kd^FMN
# T4 construct: C-terminal His6 tag kept, expressed in E. coli BL21(DE3)pLysS; subunit 20596 g/mol; dimer in solution; contains no cysteine
# From the text: as §1
# Pden_5119 [5] = biological target: T5, Pden_5119 (Paracoccus denitrificans, UniProt A1BCD5, R116A); test: intrinsic protein fluorescence quenching titration; assay type: binding; conditions: read-out: Kd^FMN
# T5 construct: C-terminal His6 tag kept, expressed in E. coli BL21(DE3)pLysS; subunit 20596 g/mol; dimer in solution; contains no cysteine
# From the text: as §1
# Pden_5119 [6] = biological target: T1, Pden_5119; test: stopped-flow reduction of enzyme-bound FMN at […] nm, hyperbolic fit of kobs; assay type: biochemical; conditions: anaerobic reductive half-reaction of enzyme-FMN complex; rapid-equilibrium binding step; 0.1 M sodium phosphate pH 7.3; 10 °C; read-out: KNADH
# Pden_5119 [7] = biological target: T2, Pden_5119; test: as above; assay type: biochemical; conditions: anaerobic reductive half-reaction of enzyme-FMN complex; rapid-equilibrium binding step; 0.1 M sodium phosphate pH 7.3; 10 °C; read-out: KNADH
# Pden_5119 [8] = biological target: T4, Pden_5119; test: as above; assay type: biochemical; conditions: anaerobic reductive half-reaction of enzyme-FMN complex; rapid-equilibrium binding step; 0.1 M sodium phosphate pH 7.3; 10 °C; read-out: KNADH
# Pden_5119 [9] = biological target: T5, Pden_5119; test: as above; assay type: biochemical; conditions: anaerobic reductive half-reaction of enzyme-FMN complex; rapid-equilibrium binding step; 0.1 M sodium phosphate pH 7.3; 10 °C; read-out: KNADH
# Pden_5119 [10] = biological target: T3, Pden_5119; test: as above; assay type: biochemical; conditions: anaerobic reductive half-reaction of enzyme-FMN complex; rapid-equilibrium binding step; 0.1 M sodium phosphate pH 7.3; 10 °C; read-out: KNADH
# [11] = biological target: the molecule itself; test: SAXS; protein at 1.5 mg/mL (73 μM in monomer); ab initio envelope (DAMMIN) and CRYSOL fit of a dimeric homology model to the scattering curve
# T5 sequence (A1BCD5 entry or part of it R116A): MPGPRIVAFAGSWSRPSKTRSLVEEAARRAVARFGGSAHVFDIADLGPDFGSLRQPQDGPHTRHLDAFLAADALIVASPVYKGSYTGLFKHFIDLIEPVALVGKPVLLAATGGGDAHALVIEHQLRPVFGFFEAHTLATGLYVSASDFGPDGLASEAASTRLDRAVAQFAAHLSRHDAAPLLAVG
# T4 sequence (A1BCD5 entry or part of it R116K): as the sequence (A1BCD5 entry or part of it R116A) above, with A116K counted along it
# T2 sequence (A1BCD5 entry or part of it K82A): as the sequence (A1BCD5 entry or part of it R116A) above, with K82A, A116R counted along it
# T1 sequence (A1BCD5 entry or part of it H117A): as the sequence (A1BCD5 entry or part of it R116A) above, with A116R, H117A counted along it
molecule,measurement,setting,value
Cc1cc2nc3c(=O)[nH]c(=O)nc-3n(C[C@H](O)[C@H](O)[C@H](O)COP(=O)(O)O)c2cc1C [FMN],Kd,Pden_5119 [1],9.1 ± 0.6 µM
same,Kd,Pden_5119 [2],6.8 ± 3.4 µM
same,Kd,Pden_5119 [3],3.8 ± 0.4 µM
same,Kd,Pden_5119 [4],0.6 ± 0.1 µM
same,Kd,Pden_5119 [5],3.5 ± 1.5 µM
NC(=O)C1=CN([C@@H]2O[C@H](COP(=O)(O)OP(=O)(O)OC[C@H]3O[C@@H](n4cnc5c(N)ncnc54)[C@H](O)[C@@H]3O)[C@@H](O)[C@H]2O)C=CC1 [NADH],Kd,Pden_5119 [6],40 ± 7 µM
same,Kd,Pden_5119 [7],53 ± 18 µM
same,Kd,Pden_5119 [8],20 ± 4 µM
same,Kd,Pden_5119 [9],39 ± 17 µM
same,Kd,Pden_5119 [10],19 ± 1 µM
B1,stoichiometry N,[11],2
